Experimental data: ChEMBL document CHEMBL3580553, “Potent and Nontoxic Chemosensitizer of P-Glycoprotein-Mediated Multidrug Resistance in Cancer: Synthesis and Evaluation of Methylated Epigallocatechin, Gallocatechin, and Dihydromyricetin Derivatives” (J Med Chem, 2015)
pIC50: −log10 of the molar value.

Key:
L929 = experiment: Cytotoxicity against mouse L929 cells after 3 days by MTS assay; assay type: cell-based; details: L929, 72 h
[1] = Cytotoxicity against human LCC-6 cells after 3 days by MTS assay; assay type: functional, cell-based; details: LCC-6, 72 h
[2] = target: ATP-dependent translocase ABCB1 (Homo sapiens, UniProt P08183); experiment: Modulation of P-gp (unknown origin) transfected in human MDA435/LCC6MDR cells assessed as reversible of paclitaxel resistance measured as IC50 for paclitaxel at 1 uM after 5 days by CellTiter 96 Aqueous assay relative to PTX alone treated cell; assay type: cell-based; details: 120 h
[3] = Cytotoxicity against human MDA435/LCC6MDR cells after 3 days by MTS assay; assay type: functional, cell-based; details: 72 h
[4] = Selectivity index, ratio of IC50 for mouse […] cells to EC50 for modulation of P-gp (unknown origin) transfected in human MDA435/LCC6MDR cells assessed as reversing paclitaxel resistance; design: species or system L929
[5] = Modulation of P-gp (unknown origin) transfected in human MDA435/LCC6MDR cells assessed as reversible of paclitaxel resistance measured as IC50 for paclitaxel at 1 uM after 5 days by CellTiter 96 Aqueous assay

Sequence of ATP-dependent translocase ABCB1 (P08183 whole entry): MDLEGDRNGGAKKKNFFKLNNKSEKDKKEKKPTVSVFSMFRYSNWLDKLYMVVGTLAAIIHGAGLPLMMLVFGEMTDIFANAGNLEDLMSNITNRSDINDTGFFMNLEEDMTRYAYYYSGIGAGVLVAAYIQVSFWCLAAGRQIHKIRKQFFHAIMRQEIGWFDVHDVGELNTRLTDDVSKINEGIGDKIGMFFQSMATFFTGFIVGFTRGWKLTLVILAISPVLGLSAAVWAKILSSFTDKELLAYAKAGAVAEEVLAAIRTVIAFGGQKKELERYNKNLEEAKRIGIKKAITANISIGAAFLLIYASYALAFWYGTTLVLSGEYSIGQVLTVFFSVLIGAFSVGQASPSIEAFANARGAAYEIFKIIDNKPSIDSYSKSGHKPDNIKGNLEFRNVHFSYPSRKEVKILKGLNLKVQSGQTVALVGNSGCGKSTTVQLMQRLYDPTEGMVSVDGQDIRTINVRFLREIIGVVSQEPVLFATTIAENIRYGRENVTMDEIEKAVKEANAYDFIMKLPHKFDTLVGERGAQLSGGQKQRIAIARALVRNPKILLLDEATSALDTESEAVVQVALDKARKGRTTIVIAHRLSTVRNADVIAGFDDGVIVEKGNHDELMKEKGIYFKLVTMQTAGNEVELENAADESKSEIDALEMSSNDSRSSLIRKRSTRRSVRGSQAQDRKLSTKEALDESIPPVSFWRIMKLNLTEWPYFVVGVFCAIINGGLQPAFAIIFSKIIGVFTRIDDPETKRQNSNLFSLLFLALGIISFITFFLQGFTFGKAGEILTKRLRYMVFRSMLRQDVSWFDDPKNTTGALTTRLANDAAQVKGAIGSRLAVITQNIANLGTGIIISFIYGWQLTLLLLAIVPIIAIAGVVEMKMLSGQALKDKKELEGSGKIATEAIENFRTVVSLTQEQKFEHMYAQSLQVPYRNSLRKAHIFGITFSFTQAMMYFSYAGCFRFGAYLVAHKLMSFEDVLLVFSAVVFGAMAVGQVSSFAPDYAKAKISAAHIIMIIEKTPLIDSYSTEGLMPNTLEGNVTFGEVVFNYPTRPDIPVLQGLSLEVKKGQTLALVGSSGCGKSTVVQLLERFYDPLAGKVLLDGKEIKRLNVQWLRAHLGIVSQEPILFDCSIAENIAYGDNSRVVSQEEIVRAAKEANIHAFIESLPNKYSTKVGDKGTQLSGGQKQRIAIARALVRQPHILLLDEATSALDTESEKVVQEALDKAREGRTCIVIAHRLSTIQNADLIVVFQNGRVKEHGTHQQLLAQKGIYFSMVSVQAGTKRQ

Row | Compound | Ratio [2] | IC50 [5] [µM] | pIC50 (L929) | pIC50 [1] | pIC50 [3] | Ratio IC50/EC50 [4]
1 | CCOc1cc(C(=O)O[C@@H]2Cc3c(OC)cc(OC)cc3O[C@@H]2c2cc(OC)c(OC)c(OC)c2)cc(OCC)c1OCC | 1.3 |  | < 4.00 | < 4.00 | < 4.00 | 
2 | COc1cc(OC)c2c(c1)O[C@H](c1cc(OC)c(OC)c(OC)c1)[C@@H](OC(C)=O)C2=O | 1.4 |  |  |  |  | 
3 | COc1cc(OC)c2c(c1)O[C@H](c1cc(OC)c(OC)c(OC)c1)[C@@H](OC(=O)c1ccc(F)c(NC(=O)/C=C/c3cc(OC)c(OC)c(OC)c3)c1)C2 | 34.4 | 0.0042 | < 4.00 | < 4.00 | < 4.00 | >444
4 | COc1cc(OC)c2c(c1)O[C@H](c1cc(OC)c(OC)c(OC)c1)[C@@H](OC(=O)/C=C/c1cc(OC)c(OC)c(OC)c1)C2 |  |  | < 4.00 | < 4.00 | < 4.00 | 
5 | COc1ccc(CC(=O)O[C@@H]2Cc3c(OC)cc(OC)cc3O[C@@H]2c2cc(OC)c(OC)c(OC)c2)cc1 | 4.2 |  |  |  |  | 
6 | CC(=O)O[C@H]1C(=O)[C@@]2(C)[C@H]([C@H](OC(=O)c3ccccc3)[C@]3(O)C[C@H](OC(=O)[C@H](O)[C@@H](NC(=O)c4ccccc4)c4ccccc4)C(C)=C1C3(C)C)[C@]1(OC(C)=O)CO[C@@H]1C[C@@H]2O [PACLITAXEL] |  |  |  | 8.80 | 6.84 | 
7 | COc1cc(OC)c2c(c1)O[C@H](c1cc(OC)c(OC)c(OC)c1)[C@H](OC(=O)c1ccc(F)c(NC(=O)/C=C/c3cc(OC)c(OC)c(OC)c3)c1)C2 | 23.3 |  | < 4.00 | < 4.00 | < 4.00 | 
8 | COc1cc(OC)c2c(=O)c(OCCOC(=O)/C=C/c3cc(OC)c(OC)c(OC)c3)c(-c3ccc(OC)c(OC)c3)oc2c1 | 11.2 |  |  |  |  | 
9 | C=CCOc1cc(C(=O)O[C@H]2C(=O)c3c(OC)cc(OC)cc3O[C@@H]2c2cc(OC)c(OC)c(OC)c2)cc(OCC=C)c1OCC=C | 4.6 |  |  |  |  | 
10 | COc1cc(OC)c2c(c1)O[C@H](c1cc(OC)c(OC)c(OC)c1)[C@@H](OC(=O)c1ccc(F)c(NC(=O)/C=C/c3ccc(OC)c(OC)c3)c1)C2=O | 10 | 0.0144 |  |  |  | 
11 | COc1cc(OC)c2c(c1)O[C@H](c1cc(OC)c(OC)c(OC)c1)[C@H](OC(=O)CCc1cc(OC)c(OC)c(OC)c1)C2 | 8 |  |  |  |  | 
12 | COc1cc(OC)c2c(c1)O[C@H](c1cc(OC)c(OC)c(OC)c1)[C@@H](OC(=O)c1ccc(F)c(NC(=O)c3cc(OC)c(OC)c(OC)c3)c1)C2=O | 4 |  |  |  |  | 
13 | COc1ccc(C(=O)O[C@H]2C(=O)c3c(OC)cc(OC)cc3O[C@@H]2c2cc(OC)c(OC)c(OC)c2)cc1 | 3 |  |  |  |  | 
14 | COc1cc(OC)c2c(c1)O[C@H](c1cc(OC)c(OC)c(OC)c1)[C@H](OC(=O)c1ccc(F)c(NC(=O)c3ccc(F)c(NC(=O)c4cc(OC)c(OC)c(OC)c4)c3)c1)C2 | 10.8 |  |  |  |  | 
15 | COc1ccc(/C=C/C(=O)O[C@H]2C(=O)c3c(OC)cc(OC)cc3O[C@@H]2c2cc(OC)c(OC)c(OC)c2)cc1 | 3.6 |  |  |  |  | 
16 | COc1ccc(/C=C/C(=O)O[C@H]2Cc3c(OC)cc(OC)cc3O[C@@H]2c2cc(OC)c(OC)c(OC)c2)cc1 | 7.8 |  |  |  |  | 
17 | COc1cc(OC)c2c(c1)O[C@H](c1cc(OC)c(OC)c(OC)c1)[C@@H](O)C2 | 1.1 |  |  |  |  | 

Row | Compound | Ratio [2] | IC50 [5] [µM] | pIC50 (L929) | pIC50 [1] | pIC50 [3] | Ratio IC50/EC50 [4]
18 | COc1cc(OC)c2c(c1)O[C@H](c1cc(OC)c(OC)c(OC)c1)[C@@H](OC(=O)c1cc(OC)c(OC)c(OC)c1)C2=O | 3.3 |  |  |  |  | 
19 | COc1cc(OC)c2c(c1)O[C@H](c1cc(OC)c(OC)c(OC)c1)[C@H](OC(=O)c1ccc(F)c(NC(C)=O)c1)C2 | 9.8 |  | < 4.00 | < 4.00 | < 4.00 | 
20 | COc1ccc(C(=O)OCCOc2c(-c3ccc(OC)c(OC)c3)oc3cc(OC)cc(OC)c3c2=O)cc1 | 6 |  |  |  |  | 
21 | C=CCOc1cc(C(=O)O[C@@H]2Cc3c(OC)cc(OC)cc3O[C@@H]2c2cc(OC)c(OC)c(OC)c2)cc(OCC=C)c1OCC=C | 12.1 |  | < 4.00 | < 4.00 | < 4.00 | 
22 | COc1cc(O)c2c(=O)c(OC(=O)c3cc(OC)c(OC)c(OC)c3)c(-c3ccc(OC)c(OC)c3)oc2c1 | 2.1 |  |  |  |  | 
23 | COc1ccc(C(=O)Nc2cc(C(=O)Nc3cc(C(=O)O[C@@H]4Cc5c(OC)cc(OC)cc5O[C@@H]4c4cc(OC)c(OC)c(OC)c4)ccc3F)ccc2F)cc1 | 9.2 | 0.0157 |  |  |  | 
24 | COc1ccc(CCC(=O)O[C@@H]2Cc3c(OC)cc(OC)cc3O[C@@H]2c2cc(OC)c(OC)c(OC)c2)cc1 | 3.6 |  |  |  |  | 
25 | COc1cc(OC)c2c(c1)O[C@H](c1cc(OC)c(OC)c(OC)c1)[C@H](O)C2 | 0.9 | 0.1552 | < 4.00 | < 4.00 | < 4.12 | 
26 | CC(=O)Oc1cc(OC(C)=O)c2c(c1)O[C@H](c1cc(OC(C)=O)c(OC(C)=O)c(OC(C)=O)c1)[C@H](OC(=O)c1cc(OC(C)=O)c(OC(C)=O)c(OC(C)=O)c1)C2 | 0.8 |  | 4.38 | 4.15 | 4.50 | 
27 | COc1cc(OC)c2c(c1)O[C@H](c1cc(OC)c(OC)c(OC)c1)[C@@H](OC(=O)c1ccc(F)c(NC(=O)/C=C/c3cc(OC)c(OC)c(OC)c3)c1)C2=O | 5.2 |  |  |  |  | 
28 | COc1cc(OC)c2c(c1)O[C@H](c1cc(OC)c(OC)c(OC)c1)[C@@H](OC(=O)c1ccc(F)c(NC(=O)c3ccc(OC)c(OC)c3)c1)C2=O | 15.4 |  |  |  |  | 
29 | COc1cc(OC)c2c(c1)O[C@H](c1cc(OC)c(OC)c(OC)c1)[C@H](OC(=O)Cc1cc(OC)c(OC)c(OC)c1)C2 | 5.8 | 0.025 |  |  |  | 
30 | COc1cc(OC)c2c(c1)O[C@H](c1cc(OC)c(OC)c(OC)c1)[C@H](OC(=O)c1ccc(F)c(NC(=O)c3ccc(F)c(NC(=O)c4ccc(OC)c(OC)c4)c3)c1)C2 | 10.6 |  |  |  |  | 
31 | COc1cc(OC)c2c(c1)O[C@H](c1cc(OC)c(OC)c(OC)c1)[C@@H](OC(=O)/C=C/c1cc(OC)c(OC)c(OC)c1)C2=O | 9.1 | 0.0159 |  |  |  | 
32 | COc1cc(OC)c2c(c1)O[C@H](c1cc(OC)c(OC)c(OC)c1)[C@@H](OC(=O)/C=C/c1ccc(OC)c(OC)c1)C2=O | 5.5 | 0.0262 |  |  |  | 
33 | COc1ccc(/C=C/C(=O)O[C@@H]2Cc3c(OC)cc(OC)cc3O[C@@H]2c2cc(OC)c(OC)c(OC)c2)cc1 | 6.6 |  | < 4.00 | < 4.00 | < 4.00 | 

Further lines, with some results ahead:

Row | Ratio [2] | IC50 [5] [µM] | Compound | pIC50 (L929) | pIC50 [1] | pIC50 [3] | Ratio IC50/EC50 [4]
34 | 4 |  | COc1cc(OC)c2c(c1)O[C@H](c1cc(OC)c(OC)c(OC)c1)[C@H](OC(=O)c1ccc(F)c(N(C)C)c1)C2 | < 4.00 | < 4.00 | < 4.00 | 
35 | 4.5 |  | COc1cc(OC)c2c(c1)O[C@H](c1cc(OC)c(OC)c(OC)c1)[C@H](OC(=O)Cc1ccc(OC)c(OC)c1)C2 |  |  |  | 
36 | 1 |  | COc1ccc(C(=O)O[C@@H]2Cc3c(OC)cc(OC)cc3O[C@@H]2c2cc(OC)c(OC)c(OC)c2)cc1 | < 4.00 | < 4.00 | < 4.08 | 
37 | 17.9 | 0.0081 | COc1cc(OC)c2c(c1)O[C@H](c1cc(OC)c(OC)c(OC)c1)[C@H](OC(=O)c1ccc(F)c(NC(=O)/C=C/c3ccc(OC)c(OC)c3)c1)C2 | < 4.00 | < 4.00 | < 4.00 | 
38 | 2.2 |  | COc1ccc(C(=O)O[C@H]2Cc3c(OC)cc(OC)cc3O[C@@H]2c2cc(OC)c(OC)c(OC)c2)cc1 |  |  |  | 
39 | 12.1 |  | COc1cc(OC)c2c(c1)O[C@H](c1cc(OC)c(OC)c(OC)c1)[C@@H](OC(=O)c1ccc(OC)c(OC)c1)C2 |  |  |  | 
40 | 12.3 | 0.0118 | COc1cc(OC)c2c(c1)O[C@H](c1cc(OC)c(OC)c(OC)c1)[C@@H](OC(=O)/C=C/c1ccc(OC)c(OC)c1)C2 | < 4.00 | < 4.00 | < 4.00 | 
41 | 7.6 |  | COc1cc(OC)c2c(c1)O[C@H](c1cc(OC)c(OC)c(OC)c1)[C@H](OC(=O)CCc1ccc(OC)c(OC)c1)C2 |  |  |  | 
42 | 16.6 |  | COc1cc(OC)c2c(c1)O[C@H](c1cc(OC)c(OC)c(OC)c1)[C@H](OC(=O)/C=C/c1ccc(OC)c(OC)c1)C2 | < 4.00 | < 4.00 | < 4.00 | >638
43 | 3 |  | COc1cc(OC)c2c(c1)O[C@H](c1cc(OC)c(OC)c(OC)c1)[C@@H](OC(=O)c1cc(OC)c(OC)c(OC)c1)C2 |  |  |  | 
44 | 6.9 | 0.021 | COc1cc(OC)c2c(c1)O[C@H](c1cc(OC)c(OC)c(OC)c1)[C@H](OC(=O)c1cc(OC)c(OC)c(OC)c1)C2 | < 4.00 | < 4.00 | < 4.00 | 
45 | 1.5 |  | COc1cc(OC)c2c(c1)O[C@H](c1cc(OC)c(OC)c(OC)c1)[C@H](OC(=O)c1cccc(F)c1)C2 | < 4.00 | < 4.00 | < 4.00 | 
46 | 4 |  | COc1cc(OC)c2c(c1)O[C@H](c1cc(OC)c(OC)c(OC)c1)[C@@H](OC(=O)c1ccc(OC)c(OC)c1)C2=O |  |  |  | 
47 | 21.9 |  | COc1cc(OC)c2c(c1)O[C@H](c1cc(OC)c(OC)c(OC)c1)[C@@H](OC(=O)c1ccc(F)c(NC(=O)/C=C/c3ccc(OC)c(OC)c3)c1)C2 | < 4.00 | < 4.00 | < 4.00 | >357
48 | 7.4 |  | COc1cc(OC)c2c(c1)O[C@H](c1cc(OC)c(OC)c(OC)c1)[C@H](OC(=O)c1ccc(OC)c(OC)c1)C2 | < 4.00 | < 4.00 | < 4.00 | 
49 | 3.2 |  | COc1cccc(C(=O)O[C@@H]2Cc3c(OC)cc(OC)cc3O[C@@H]2c2cc(OC)c(OC)c(OC)c2)c1 | < 4.00 | < 4.00 | < 4.00 | 
50 | 2.7 |  | COc1cc(OC)c2c(c1)O[C@H](c1cc(OC)c(OC)c(OC)c1)[C@H](OC(=O)c1ccc(F)cc1)C2 | < 4.00 | < 4.00 | < 4.00 | 
